According to US9226929B2, “Pharmaceutically active disubstituted triazine derivatives” (Bayer Intellectual Property GMBH, priority 2011, dated 2016):

How the values were obtained:
CDK9/Cyclin T1 = target: T1, CDK9/Cyclin T1 (Homo sapiens, UniProt P50750); assay: LanthaScreen Eu Kinase Binding Assay, CDK9/Cyclin T1; conditions: tracer 236, read-out: CDK9/Cyclin T1 (activity range), Kd
T1 construct: His; purchased Invitrogen
Description: (§1) This protocol describes how the LanthaScreen Eu Kinase Binding Assay was performed to determine dissociation constants (Kd) of compounds of general formula (I) and CDK/Cyclin complexes. The principle behind this assay is based upon the binding and displacement of an Alexa Fluor 647-labeled tracer, which binds to the active site of kinases. Binding of the tracer to the kinase is detected using a Eu-labeled antibody. Simultaneous binding of both the tracer and antibody to the kinase gives rise to a FRET-signal. Binding of an inhibitor to the kinase competes for binding with the tracer, resulting in a loss of FRET.
(§2) The compounds of general formula (I) summarized in Table 1 were diluted from a 10 mM DMSO stock solution 1:10 in a total volume of 15 μL DMSO. This compound predilution was then serial diluted 1:3 over 8 steps in DMSO and briefly spun down. Each compound solution was now diluted 1:33.33 in kinase buffer (HEPES: 20 mM, pH: 8.0; MgCl2: 10 mM; DTT: 1 mM; Brij-35: 0,01%), mixed thoroughly and spun down. For every sample, 5 μL of the diluted compound were mixed with 5 μL tracer working solution (e.g. 60 nM tracer 236 in kinase buffer for CDK2/Cyclin A) and 5 μL CDK/Cyclin/Anti-GST-AB-working solution (e.g. 15 nM CDK2/Cyclin A, 1:250 dilution of Anti-GST-AB in kinase buffer) in a well of a small volume 384 well plate (Corning Incorporated, Corning, N.Y., USA; order no. 3673). The tracer concentration was adjusted to its dissociation constant (Kd) for the CDK/Cyclin, which was 30 nM for CDK2/Cyclin A, CDK7/Cyclin H and CDK9/Cyclin T1, 20 nM for CDK8/Cyclin C, and 35 nM for CDK9/Cyclin K. For negative controls, in each well 5 μL of DMSO working solution (3% DMSO diluted in kinase buffer) was mixed with 5 μL Anti-GST-AB working solution (e.g. 1:250 dilution of Anti-GST-AB in kinase buffer for CDK2/Cyclin A) and 5 μL Tracer working solution (e.g. 60 nM Tracer 236 in kinase buffer for CDK2/Cyclin A). For positive controls, in each well 5 μL of DMSO working solution (3% DMSO diluted in kinase buffer) was mixed with 5 μL CDK/Cyclin/Anti-GST-AB-working solution: (e.g. 15 nM CDK2/Cyclin A, 1:250 dilution of Anti-GST-AB in kinase buffer) and 5 μL Tracer working solution (e.g. 60 nM Tracer 236 in kinase buffer for CDK2/Cyclin A). Positive and negative controls were calculated from at least 8 different sample wells. The 384 well plates were mixed in a Teleshaker plate mixer (Beckman Coulter, Brea, Calif., USA) at 2000 rpm for 40 sec, and incubated for 1 h at room temperature before reading. The FRET signal was measured at 340 nm excitation, 665 nm and 615 nm emission (for the kinase tracer and LanthaScreen Eu-AB, respectively) with an Envision spectrophotometer (Perkin Elmer, Waltham, Mass., USA) with […]. Kd values were determined from the sigmoidal dose response curves with the software Quattro Workflow (Quattro GmbH, Munich, Germany).

CDK9/Cyclin K = target: T2, CDK9/Cyclin K (Homo sapiens, UniProt P50750); assay: LanthaScreen Eu Kinase Binding Assay, CDK9/Cyclin K; conditions: tracer 236, read-out: CDK9/Cyclin K (activity range), Kd
T2 construct: His; purchased Invitrogen
Description: as §1, §2

CDK7/CyclinH/MAT1 = target: T3, CDK7/CyclinH/MAT1 (Homo sapiens, UniProt P50613); assay: LanthaScreen Eu Kinase Binding Assay, CDK7; conditions: tracer 236, read-out: CDK7 (activity range), Kd
T3 construct: His; purchased Carna Biosciences
Description: as §1, §2

T3 sequence (P50613 whole entry): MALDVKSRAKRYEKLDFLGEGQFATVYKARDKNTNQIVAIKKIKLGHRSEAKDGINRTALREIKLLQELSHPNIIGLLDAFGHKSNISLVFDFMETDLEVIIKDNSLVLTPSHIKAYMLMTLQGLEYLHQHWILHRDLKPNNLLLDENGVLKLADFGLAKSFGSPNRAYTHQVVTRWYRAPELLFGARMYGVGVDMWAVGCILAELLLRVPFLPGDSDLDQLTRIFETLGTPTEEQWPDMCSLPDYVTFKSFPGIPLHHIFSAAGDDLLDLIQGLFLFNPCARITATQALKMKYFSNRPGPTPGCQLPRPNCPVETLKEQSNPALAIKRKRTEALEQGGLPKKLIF
T3 sequence (P51946 whole entry partner): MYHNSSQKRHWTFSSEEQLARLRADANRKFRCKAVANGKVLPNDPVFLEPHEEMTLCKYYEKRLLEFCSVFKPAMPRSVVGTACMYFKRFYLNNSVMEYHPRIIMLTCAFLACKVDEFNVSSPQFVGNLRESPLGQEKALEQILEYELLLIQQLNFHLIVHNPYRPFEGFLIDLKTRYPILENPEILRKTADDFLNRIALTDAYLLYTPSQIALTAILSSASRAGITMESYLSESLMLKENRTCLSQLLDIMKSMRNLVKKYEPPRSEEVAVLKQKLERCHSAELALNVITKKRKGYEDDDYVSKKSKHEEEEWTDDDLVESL
T3 sequence (P51948 whole entry partner): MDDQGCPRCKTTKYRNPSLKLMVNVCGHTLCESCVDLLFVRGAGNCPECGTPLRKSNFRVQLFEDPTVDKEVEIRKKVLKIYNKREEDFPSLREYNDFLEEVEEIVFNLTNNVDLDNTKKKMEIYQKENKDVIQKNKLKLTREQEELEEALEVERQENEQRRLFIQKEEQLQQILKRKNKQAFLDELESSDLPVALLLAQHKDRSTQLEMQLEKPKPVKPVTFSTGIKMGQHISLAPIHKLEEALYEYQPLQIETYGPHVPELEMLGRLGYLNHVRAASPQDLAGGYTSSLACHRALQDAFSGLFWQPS
T2 sequence (P50750 whole entry): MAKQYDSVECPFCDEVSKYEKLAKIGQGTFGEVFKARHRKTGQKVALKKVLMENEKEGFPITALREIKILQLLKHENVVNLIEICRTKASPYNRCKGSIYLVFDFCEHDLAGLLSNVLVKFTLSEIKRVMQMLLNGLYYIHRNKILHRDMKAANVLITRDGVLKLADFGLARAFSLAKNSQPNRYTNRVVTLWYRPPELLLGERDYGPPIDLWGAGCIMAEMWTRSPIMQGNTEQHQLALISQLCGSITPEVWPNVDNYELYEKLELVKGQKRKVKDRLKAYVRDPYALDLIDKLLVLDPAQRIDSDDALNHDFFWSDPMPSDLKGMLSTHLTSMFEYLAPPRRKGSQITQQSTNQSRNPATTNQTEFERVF
T2 sequence (O75909 1-357 isoform O75909-1 partner): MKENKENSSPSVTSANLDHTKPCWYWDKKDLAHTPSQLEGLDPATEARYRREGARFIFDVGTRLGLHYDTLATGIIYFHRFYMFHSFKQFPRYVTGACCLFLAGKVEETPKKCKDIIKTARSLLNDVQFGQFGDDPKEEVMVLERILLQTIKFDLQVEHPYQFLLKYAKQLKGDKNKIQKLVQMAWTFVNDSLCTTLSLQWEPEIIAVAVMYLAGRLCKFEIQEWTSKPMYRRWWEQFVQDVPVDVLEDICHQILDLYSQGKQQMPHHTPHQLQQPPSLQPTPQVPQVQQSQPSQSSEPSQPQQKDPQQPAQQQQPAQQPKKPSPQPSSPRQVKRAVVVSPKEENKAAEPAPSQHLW
T1 sequence (P50750 whole entry): as the sequence (P50750 whole entry) above
T1 sequence (O60563 whole entry partner): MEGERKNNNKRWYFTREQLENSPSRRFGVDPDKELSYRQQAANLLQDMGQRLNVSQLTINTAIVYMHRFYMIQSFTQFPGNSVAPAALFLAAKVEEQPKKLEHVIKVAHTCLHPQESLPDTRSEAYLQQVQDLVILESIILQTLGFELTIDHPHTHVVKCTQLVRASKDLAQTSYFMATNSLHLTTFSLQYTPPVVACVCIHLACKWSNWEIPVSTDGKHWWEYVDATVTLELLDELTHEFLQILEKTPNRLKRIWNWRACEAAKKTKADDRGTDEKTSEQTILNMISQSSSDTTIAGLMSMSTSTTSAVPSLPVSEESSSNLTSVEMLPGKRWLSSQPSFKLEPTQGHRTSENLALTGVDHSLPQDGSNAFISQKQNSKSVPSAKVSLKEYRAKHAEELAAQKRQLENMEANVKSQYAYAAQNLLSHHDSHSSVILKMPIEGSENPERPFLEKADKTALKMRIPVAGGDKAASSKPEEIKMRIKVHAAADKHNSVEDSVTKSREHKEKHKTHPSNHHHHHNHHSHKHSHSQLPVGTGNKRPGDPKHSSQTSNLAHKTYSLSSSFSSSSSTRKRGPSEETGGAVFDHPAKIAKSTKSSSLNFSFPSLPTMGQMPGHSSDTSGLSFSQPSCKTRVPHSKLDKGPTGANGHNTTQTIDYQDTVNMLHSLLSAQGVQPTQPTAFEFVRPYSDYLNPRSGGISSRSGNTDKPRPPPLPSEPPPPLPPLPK

| SMILES | Kd (CDK9/Cyclin T1) [nM] | Kd (CDK9/Cyclin K) [nM] | Kd (CDK7/CyclinH/MAT1) [µM] |
| --- | --- | --- | --- |
| COCC1CCCCN1c1ncnc(Nc2cccc(CS(N)(=O)=O)c2)n1 (racemic) [Compound B4, rac-3-[(4-(2-Methoxymethylpiperidin-1-yl)-1,3,5-triazin-2-yl)amino]-benzenemethanesulfonamide] | 100 to 1000 | 100 to 1000 | > 10 |
| NS(=O)(=O)Cc1cccc(Nc2ncnc(N3CCNCC3CO)n2)c1 (racemic) [Compound B13, rac-3-[(4-(2-(Hydroxymethyl)piperazin-1-yl)-1,3,5-triazin-2-yl)amino]benzenemethanesulfonamide] | > 10000 | > 10000 |  |
| NS(=O)(=O)Cc1cccc(Nc2ncnc(N3CCCC3Cc3ccccc3)n2)c1 (racemic) [Compound B26, rac-3-[(4-(2-Benzylpyrrolidin-1-yl)-1,3,5-triazin-2-yl)amino]-benzenemethanesulfonamide] | 100 to 1000 | 100 to 1000 | > 10 |
| COC(=O)[C@H]1CCCCN1c1ncnc(Nc2cccc(CS(N)(=O)=O)c2)n1 [Compound B6, (R)-Methyl 1-[4-((3-(Sulfamoylmethyl)phenyl)amino)-1,3,5-triazin-2-yl]piperidine-2-carboxylate] | < 100 | 100 to 1000 | > 10 |
| CN1CCN(c2ncnc(Nc3cccc(CS(N)(=O)=O)c3)n2)CC1 [Compound B12, 3-[(4-(4-Methylpiperazin-1-yl)-1,3,5-triazin-2-yl)amino]-benzenemethanesulfonamide] | > 10000 | > 10000 | > 10 |
| C[C@@H]1CCCN1c1ncnc(Nc2cccc(CS(N)(=O)=O)c2)n1 [Compound B15, (R)-3-[(4-(2-Methylpyrrolidin-1-yl)-1,3,5-triazin-2-yl)amino]-benzenemethanesulfonamide] | 100 to 1000 | 1000 to 10000 | > 10 |
| COC[C@H]1CC[C@H](COC)N1c1ncnc(Nc2cccc(CS(N)(=O)=O)c2)n1 [Compound B19, 3-[(4-((2R,5R)-Bis(methoxymethyl)pyrrolidin-1-yl)-1,3,5-triazin-2-yl)amino]benzenemethanesulfonamide] | > 10000 | > 10000 | > 10 |
| COC[C@@H]1CC[C@@H](COC)N1c1ncnc(Nc2cccc(CS(N)(=O)=O)c2)n1 [Compound B20] | > 10000 | > 10000 | > 10 |
| COC(=O)[C@@H]1CCCN1c1ncnc(Nc2cccc(CS(N)(=O)=O)c2)n1 [Compound B22, (S)-Methyl 1-[4-((3-(Sulfamoylmethyl)phenyl)amino)-1,3,5-triazin-2-yl]pyrrolidine-2-carboxylate] | > 10000 | > 10000 | > 10 |
| NS(=O)(=O)Cc1cccc(Nc2ncnc(N3CCC[C@H]3CN3CCCC3)n2)c1 [Compound B32, (S)-3-[(4-(2-((Pyrrolidin-1-yl)methyl)pyrrolidin-1-yl)-1,3,5-triazin-2-yl)amino]benzenemethanesulfonamide] | > 10000 | > 10000 | > 10 |
| NS(=O)(=O)Cc1cccc(Nc2ncnc(N3CCc4ncncc4C3)n2)c1 [Compound B39, 3-[(4-(7,8-Dihydropyrido[4,3-d]pyrimidin-6(5H)-yl)-1,3,5-triazin-2-yl)amino]benzenemethanesulfonamide] | 100 to 1000 | 1000 to 10000 | > 10 |

The next lines start with the values.

| Kd (CDK9/Cyclin T1) [nM] | Kd (CDK9/Cyclin K) [nM] | Kd (CDK7/CyclinH/MAT1) [µM] | SMILES |
| --- | --- | --- | --- |
| > 10000 | > 10000 | > 10 | CC(C)(C)OC(=O)NCC1CCCCN1c1ncnc(Nc2cccc(CS(N)(=O)=O)c2)n1 (racemic) [Compound B7, rac-tert-Butyl[(1-(4-((3-(Sulfamoylmethyl)phenyl)amino)-1,3,5-triazin-2-yl)piperidine-2-yl)methyl]carbamate] |
| 100 to 1000 | 100 to 1000 | > 10 | NS(=O)(=O)Cc1cccc(Nc2ncnc(N3CCCCC3c3ccccc3)n2)c1 (racemic) [Compound B9, rac-3-[(4-(2-Phenylpiperidin-1-yl)-1,3,5-triazin-2-yl)amino]-benzenemethanesulfonamide] |
| 1000 to 10000 | 1000 to 10000 | > 10 | NS(=O)(=O)Cc1cccc(Nc2ncnc(N3CCCC3CCc3ccccc3)n2)c1 (racemic) [Compound B27, rac-3-[(4-(2-(2-Phenylethyl)pyrrolidin-1-yl)-1,3,5-triazin-2-yl)amino]-benzenemethanesulfonamide] |
| 100 to 1000 | 100 to 1000 | > 10 | NS(=O)(=O)Cc1cccc(Nc2ncnc(N3CCC3c3ccccc3)n2)c1 (racemic) [Compound B37, rac-3-[(4-(2-Phenylazetidin-1-yl)-1,3,5-triazin-2-yl)amino]-benzenemethanesulfonamide] |
| 100 to 1000 | 100 to 1000 | > 10 | NS(=O)(=O)Cc1cccc(Nc2ncnc(N3CCC(F)(F)CC3)n2)c1 [Compound B2, 3-[(4-(4,4-Difluoropiperidin-1-yl)-1,3,5-triazin-2-yl)amino]-benzenemethanesulfonamide] |
| 100 to 1000 | 100 to 1000 | > 10 | NS(=O)(=O)Cc1cccc(Nc2ncnc(N3CCCC(F)(F)C3)n2)c1 [Compound B3, 3-[(4-(3,3-Difluoropiperidin-1-yl)-1,3,5-triazin-2-yl)amino]-benzenemethanesulfonamide] |
| > 10000 | > 10000 | > 10 | NS(=O)(=O)Cc1cccc(Nc2ncnc(N3CCNCC3)n2)c1 [Compound B11, 3-[(4-(piperazin-1-yl)-1,3,5-triazin-2-yl)amino]benzenemethane sulfonamide] |
| 100 to 1000 | 1000 to 10000 | > 10 | NS(=O)(=O)Cc1cccc(Nc2ncnc(N3CCCC3)n2)c1 [Compound B14, 3-[(4-(Pyrrolidin-1-yl)-1,3,5-triazin-2-yl)amino]benzenemethane sulfonamide] |
| 100 to 1000 | 1000 to 10000 | > 10 | NS(=O)(=O)Cc1cccc(Nc2ncnc(N3CCC[C@H]3C(F)(F)F)n2)c1 [Compound B16, (S)-3-[(4-(2-(Trifluoromethyl)pyrrolidin-1-yl)-1,3,5-triazin-2-yl)amino]-benzenemethanesulfonamide] |
| > 10000 | > 10000 | > 10 | NC(=O)[C@H]1CCCN1c1ncnc(Nc2cccc(CS(N)(=O)=O)c2)n1 [Compound B23, (R)-1-[4-((3-(Sulfamoylmethyl)phenyl)amino)-1,3,5-triazin-2-yl]pyrrolidine-2-carboxamide] |
| 1000 to 10000 | 1000 to 10000 | > 10 | NS(=O)(=O)Cc1cccc(Nc2ncnc(N3CCC[C@@H]3COc3ccccc3)n2)c1 [Compound B28, (R)-3-[(4-(2-(Phenoxymethyl)pyrrolidin-1-yl)-1,3,5-triazin-2-yl)amino]-benzenemethanesulfonamide] |
| 1000 to 10000 | 1000 to 10000 | > 10 | NS(=O)(=O)Cc1cccc(Nc2ncnc(N3CCC[C@@H]3CNc3ccccc3)n2)c1 [Compound B29, (R)-3-[(4-(2-(Phenylamino-methyl)pyrrolidin-1-yl)-1,3,5-triazin-2-yl)amino]benzenemethanesulfonamide] |
| 1000 to 10000 | 1000 to 10000 | > 10 | COC(=O)[C@H]1CCN1c1ncnc(Nc2cccc(CS(N)(=O)=O)c2)n1 [Compound B36, (R)-Methyl 1-[4-((3-(Sulfamoylmethyl)phenyl)amino)-1,3,5-triazin-2-yl]azetidine-2-carboxylate] |
